Assay results taken from patent publication US7135615B2, “Chromosome doubling method” (The Curators of the University of Missouri, priority 2001, dated 2006).
“And” between values parts separate entries of the source, which are not always exact repeats. Identical values can stand only once. Marks after values point to notes of the source that are not given here.

What was measured:
[1] = system: maize haploid seedlings of origin B73; assay: doubled haploid production trial, B73 haploids (Example 4); conditions: for Ear: Plants with kernels after selfing % / Tassel: No. of fertile anthers extruded/tassel / Tassel: No. of fertile sectors/tassel / Tassel: Plants with fertile sectors % / Ear: Plants with kernels after selfing No. / Tassel: Plants with fertile sectors No. / No. of plants Survived / Ear: No. of kernels produced/ear: B73 haploids, 600 kPa, 2 days; for Ear: Plants with kernels after selfing No. / Tassel: Plants with fertile sectors No.: 11 survived; for No. of plants Survived: 11 treated; for Ear: No. of kernels produced/ear: selfed
Experimental: (§1) Ten to nineteen plants were treated for each plot. Self pollinations were conducted on these treated haploids if there were fertile sectors on the tassel. Pollen grains were collected carefully on a sheet of paper and transferred to the silks repeatedly. Silks and husks were cut back prior to pollination in order to permit maximum seed set. The numbers of fertile tassel and ear sectors, as well as the numbers of anthers and selfed kernels were recorded. Statistical analyses were as described above.

[2] = system: maize haploid seedlings of origin Oh43; assay: doubled haploid production trial, Oh43 haploids (Example 4); conditions: for Ear: Plants with kernels after selfing % / Tassel: No. of fertile anthers extruded/tassel / Tassel: Plants with fertile sectors % / Ear: Plants with kernels after selfing No. / Tassel: Plants with fertile sectors No. / No. of plants Survived / Ear: No. of kernels produced/ear: 600 kPa, 2 days; for Ear: No. of kernels produced/ear: selfed
Experimental: as §1

[3] = system: maize haploid seedlings of origin B55 × A619; assay: doubled haploid production trial, B55 × A619 haploids (Example 4); conditions: 600 kPa, 2 days; for Ear: No. of kernels produced/ear: selfed
Experimental: as §1

[4] = system: maize haploid seedlings of origin W22 × W23; assay: doubled haploid production trial, W22 × W23 haploids (Example 4); conditions: 600 kPa, 2 days; for Ear: No. of kernels produced/ear: selfed
Experimental: as §1

[5] = system: B55 haploid plants; assay: nitrous oxide treatment of B55 haploids (initial study, Example 1)
Experimental: Maize haploids were induced by the stock 6 procedure (Coe 1959) and separated by the color marker R1-scm2 (Kato, 1999c). […] Haploid seeds were surface sterilized with the fungicide Captan and germinated in moist vermiculite at 30° C. for two days. The germinated seeds were planted at the edge of a small pot filled with ProMix (FIG. 1).
Application of a water mist to the plastic carpet may be used to prevent the occurrence of a static charge. […] The chamber was made from steel pipes and flanges designed for industrial use. Two 3 foot long pipes with flanges at both sides were connected to each other with 8 bolts to form the chamber. Iron covers were applied at the both ends. […] The chamber was preferably earthed.
Because the gas from the tank was very cold, use of a long introductory tube (5 m) submerged in water was made to warm up the gas before introduction into the chamber. Application of paper wrapped moistened calcium hydroxide was also preferable to absorb accumulating carbon dioxide in the chamber.
After N2O treatment the seedlings were kept at warm temperature (20–25° C.) in the greenhouse for two to three days and transplanted to the field or pots in the greenhouse. […] The plants were then grown and self pollinated. Cultivation and self pollination methods were the same as for diploid maize plants.

[6] = system: haploid seedlings; assay: survival of haploid seedlings treated with nitrous oxide gas (all experiments); format: in vivo, maize (Zea mays L.); conditions: 450 haploid seedlings treated
Experimental: The germinated seeds were transferred to small plastic pots filled with ProMix, a peat moss based growing medium (Hummert, St. Louis, Miss.). The seedlings were grown in a greenhouse for one to four weeks. Stock 6 induced 1–5 putative haploid kernels per ear (purple kernel with white embryo or yellow kernel with purple embryo) on all genotypes. A total of 715 putative haploid kernels were planted for the experiments. Most of them (94%) were determined to be haploid from their morphology and high sterility. The remaining 4.7% were misclassified F1s, 1.1% were hypoploids, and 0.3% (one plant induced from B73 and one plant from Oh43×Mol7) were spontaneous doubled haploids. […] In a second study, fourteen out of 50 treated Oh43 haploid seedlings died from fungus attack.

[7] = Oh43 haploids, 5 leaf stage, 14 survived
[8] = Oh43 haploids, 6 leaf stage, 12 survived
[9] = Oh43 haploids, 7 leaf stage, 10 survived

Structure (SMILES): [N-]=[N+]=O [nitrous oxide gas, nitrous oxide]
- ear and silk abnormalities ([1]; B73 haploids treated at the 7 leaf stage): deformed ears and delayed silk emergence
- Ear: Plants with kernels after selfing % ([1]; 5 leaf stage): 36 n.s. %
- Tassel: No. of fertile anthers extruded/tassel ([1]; 5 leaf stage): 3.5 n.s /tassel
- Tassel: No. of fertile sectors/tassel ([1]; 5 leaf stage): 0.5 n.s. /tassel
- Tassel: Plants with fertile sectors % ([1]; 5 leaf stage): 45 n.s. %
- Ear: Plants with kernels after selfing No. ([1]; 5 leaf stage): 4
- Tassel: Plants with fertile sectors No. ([1]; 5 leaf stage): 5
- No. of plants Survived ([1]; 5 leaf stage): 11
- Ear: No. of kernels produced/ear ([1]; 5 leaf stage): 2.4 n.s. /ear
- Ear: Plants with kernels after selfing % ([1]; 6 leaf stage): 45%
- Tassel: No. of fertile anthers extruded/tassel ([1]; 6 leaf stage): 13.2 /tassel
- Tassel: Plants with fertile sectors % ([1]; 6 leaf stage): 64%
- Ear: Plants with kernels after selfing No. ([1]; 6 leaf stage): 5
- Tassel: Plants with fertile sectors No. ([1]; 6 leaf stage): 7
- No. of plants Survived ([1]; 6 leaf stage): 11
- Ear: No. of kernels produced/ear ([1]; 6 leaf stage): 10.7 /ear
- Ear: Plants with kernels after selfing % ([1]; 7 leaf stage): 18%
- Tassel: No. of fertile anthers extruded/tassel ([1]; 7 leaf stage): 14.9 /tassel
- Tassel: No. of fertile sectors/tassel ([1]; 7 leaf stage): 1.4 /tassel
- Tassel: Plants with fertile sectors % ([1]; 7 leaf stage): 64%
- Ear: Plants with kernels after selfing No. ([1]; 7 leaf stage): 2
- Tassel: Plants with fertile sectors No. ([1]; 7 leaf stage): 7
- No. of plants Survived ([1]; 7 leaf stage): 11
- Ear: No. of kernels produced/ear ([1]; 7 leaf stage): 0.9 /ear
- self pollination success rates after treatment ([2]; Oh43 haploids): 20–30%
- Ear: Plants with kernels after selfing % ([2]; Oh43 haploids, 5 leaf stage): 29 n.s %
- Tassel: No. of fertile anthers extruded/tassel ([2]; Oh43 haploids, 5 leaf stage): 11.2* /tassel
- Tassel: Plants with fertile sectors % ([2]; Oh43 haploids, 5 leaf stage): 57%
- Ear: Plants with kernels after selfing No. [2, 7]: 4
- Tassel: Plants with fertile sectors No. [2, 7]: 8
- No. of plants Survived ([2]; Oh43 haploids, 5 leaf stage, 19 treated): 14
- Ear: No. of kernels produced/ear ([2]; Oh43 haploids, 5 leaf stage): 0.6 n.s. /ear
- Ear: Plants with kernels after selfing % ([2]; Oh43 haploids, 6 leaf stage): 17%
- Tassel: No. of fertile anthers extruded/tassel ([2]; Oh43 haploids, 6 leaf stage): 5.7** /tassel
- Tassel: Plants with fertile sectors % ([2]; Oh43 haploids, 6 leaf stage): 92** %
- Ear: Plants with kernels after selfing No. [2, 8]: 2
- Tassel: Plants with fertile sectors No. [2, 8]: 11
- No. of plants Survived ([2]; Oh43 haploids, 6 leaf stage, 16 treated): 12
- Ear: No. of kernels produced/ear ([2]; Oh43 haploids, 6 leaf stage): 1.0 /ear
- Ear: Plants with kernels after selfing % ([2]; Oh43 haploids, 7 leaf stage): 10%
- Tassel: No. of fertile anthers extruded/tassel ([2]; Oh43 haploids, 7 leaf stage): 2.6 /tassel
- Tassel: Plants with fertile sectors % ([2]; Oh43 haploids, 7 leaf stage): 70* %
- Ear: Plants with kernels after selfing No. [2, 9]: 1
- Tassel: Plants with fertile sectors No. [2, 9]: 7
- No. of plants Survived ([2]; Oh43 haploids, 7 leaf stage, 15 treated): 10
- Ear: No. of kernels produced/ear ([2]; Oh43 haploids, 7 leaf stage): 0.1 /ear
- Tassel: No. of fertile sectors/tassel ([2]; in vivo): 0.8 /tassel and 1.3** /tassel and 1.0 /tassel
- Ear: Plants with kernels after selfing % ([3]; 5 leaf stage): 33%
- Tassel: No. of fertile anthers extruded/tassel ([3]; 5 leaf stage): 25.7** /tassel
- Tassel: No. of fertile sectors/tassel ([3]; 5 leaf stage): 1.1* /tassel
- Tassel: Plants with fertile sectors % ([3]; 5 leaf stage): 67** %
- Ear: Plants with kernels after selfing No. ([3]; 5 leaf stage, 15 survived): 5
- Tassel: Plants with fertile sectors No. ([3]; 5 leaf stage, 15 survived): 10
- No. of plants Survived ([3]; 5 leaf stage, 15 treated): 15
- Ear: No. of kernels produced/ear ([3]; 5 leaf stage): 1.3 /ear
- Ear: Plants with kernels after selfing % ([3]; 6 leaf stage): 50** %
- Tassel: No. of fertile anthers extruded/tassel ([3]; 6 leaf stage): 109.9** /tassel
- Tassel: No. of fertile sectors/tassel ([3]; 6 leaf stage): 3.1** /tassel
- Tassel: Plants with fertile sectors % ([3]; 6 leaf stage): 71** %
- Ear: Plants with kernels after selfing No. ([3]; 6 leaf stage, 14 survived): 7
- Tassel: Plants with fertile sectors No. ([3]; 6 leaf stage, 14 survived): 10
- No. of plants Survived ([3]; 6 leaf stage, 14 treated): 14
- Ear: No. of kernels produced/ear ([3]; 6 leaf stage): 9.5* /ear
- Ear: Plants with kernels after selfing % ([3]; 7 leaf stage): 62** %
- Tassel: No. of fertile anthers extruded/tassel ([3]; 7 leaf stage): 60.2** /tassel
- Tassel: No. of fertile sectors/tassel ([3]; 7 leaf stage): 3.9** /tassel
- Tassel: Plants with fertile sectors % ([3]; 7 leaf stage): 92** %
- Ear: Plants with kernels after selfing No. ([3]; 7 leaf stage, 13 survived): 8
- Tassel: Plants with fertile sectors No. ([3]; 7 leaf stage, 13 survived): 12
- No. of plants Survived ([3]; 7 leaf stage, 13 treated): 13
- Ear: No. of kernels produced/ear ([3]; 7 leaf stage): 15.7** /ear
- Ear: Plants with kernels after selfing % ([4]; 5 leaf stage): 45 n.s. %
- Tassel: No. of fertile anthers extruded/tassel ([4]; 5 leaf stage): 27.6 n.s /tassel
- Tassel: No. of fertile sectors/tassel ([4]; 5 leaf stage): 1.1 n.s. /tassel
- Tassel: Plants with fertile sectors % ([4]; 5 leaf stage): 64 n.s. %
- Ear: Plants with kernels after selfing No. ([4]; 5 leaf stage, 11 survived): 5
- Tassel: Plants with fertile sectors No. ([4]; 5 leaf stage, 11 survived): 7
- No. of plants Survived ([4]; 5 leaf stage, 12 treated): 11
- Ear: No. of kernels produced/ear ([4]; 5 leaf stage): 9.5 n.s. /ear
- Ear: Plants with kernels after selfing % ([4]; 6 leaf stage): 40%
- Tassel: No. of fertile anthers extruded/tassel ([4]; 6 leaf stage): 18.0 /tassel
- Tassel: No. of fertile sectors/tassel ([4]; 6 leaf stage): 2.1 /tassel
- Tassel: Plants with fertile sectors % ([4]; 6 leaf stage): 60%
- Ear: Plants with kernels after selfing No. ([4]; 6 leaf stage, 10 survived): 4
- Tassel: Plants with fertile sectors No. ([4]; 6 leaf stage, 10 survived): 6
- No. of plants Survived ([4]; 6 leaf stage, 12 treated): 10
- Ear: No. of kernels produced/ear ([4]; 6 leaf stage): 3.3 /ear
- Ear: Plants with kernels after selfing % ([4]; 7 leaf stage): 43%
- Tassel: No. of fertile anthers extruded/tassel ([4]; 7 leaf stage): 7.1 /tassel
- Tassel: No. of fertile sectors/tassel ([4]; 7 leaf stage): 1.9 /tassel
- Tassel: Plants with fertile sectors % ([4]; 7 leaf stage): 71%
- Ear: Plants with kernels after selfing No. ([4]; 7 leaf stage, 7 survived): 3
- Tassel: Plants with fertile sectors No. ([4]; 7 leaf stage, 7 survived): 5
- No. of plants Survived ([4]; 7 leaf stage, 8 treated): 7
- Ear: No. of kernels produced/ear ([4]; 7 leaf stage): 11.4 /ear
- B55 haploid plants that could be self pollinated ([5]; B55 haploids, 6 atm (600 kPa), two days, room temperature): 70–90%
- treated plants sensitive to drought following treatment ([5]; after N2O treatment, upon transplantation): 10%
- induction of doubled sectors ([5]; initial study, B55 haploids, 600 kPa): induced doubled sectors in both the tassel and the ear
- damage to plants ([5]; initial study, sealed chamber, room temperature): not damaged
- survived the treatment [6]: 92%
